Data: PubChem BioAssay (NCI)
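Tested at 5 concentrations; 48 h exposure; 96-well plates; endpoints linearly interpolated, else capped at highest concentration. At the TGI there is no net growth.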

Legend:
Assay in all cases: inhibition of tumour cell growth, NCI panel, 48 h
[1] = test system: CAKI-1 renal
[2] = test system: K-562 leukemia
[3] = test system: UO-31 renal
[4] = test system: MOLT-4 leukemia
[5] = test system: DLD-1 colon
[6] = test system: RXF-631 renal
[7] = test system: SK-MEL-28 melanoma
[8] = test system: OVCAR-3 ovarian

CN(C)CCCNC(=O)c1cccc2nc3ccccc3nc12
TGI [1]: > 78.2 µM | TGI [2]: 60.4 µM | TGI [3]: > 71 µM | TGI [4]: > 100 µM | TGI [5]: > 100 µM | TGI [6]: > 100 µM | TGI [7]: 38.5 µM | TGI [8]: > 59.5 µM

CC1=C(C(=O)Nc2cccc(C(F)(F)F)c2)C(c2ccccc2F)C(C(=O)Nc2cccc(C(F)(F)F)c2)=C(C)N1
TGI [1]: 25 µM | TGI [2]: 18.6 µM | TGI [3]: 17.3 µM | TGI [4]: 8.41 µM | TGI [5]: 20.3 µM | TGI [6]: 23.2 µM | TGI [7]: 23.7 µM | TGI [8]: 17.8 µM

C=C(CS(=O)(=O)c1ccccc1)C(=O)OCC
TGI [1]: 33.9 µM | TGI [2]: 35 µM | TGI [3]: 35.4 µM | TGI [4]: 17.8 µM | TGI [5]: 21.4 µM | TGI [6]: 16.8 µM | TGI [7]: 28.9 µM | TGI [8]: 26.5 µM

COc1ccc2oc(-c3cc4cc(OC)ccc4o3)cc2c1
TGI [1]: > 100 µM | TGI [2]: > 100 µM | TGI [3]: > 100 µM | TGI [4]: > 100 µM | TGI [5]: > 100 µM | TGI [6]: > 100 µM | TGI [7]: > 100 µM | TGI [8]: > 100 µM

COC(=O)[C@H]1CC(=O)C=C2CCCC21 (stereo not given in full)
TGI [1]: > 100 µM | TGI [2]: > 100 µM | TGI [3]: > 100 µM | TGI [4]: > 100 µM | TGI [5]: > 100 µM | TGI [6]: > 100 µM | TGI [7]: > 100 µM | TGI [8]: > 100 µM

Cc1ccc(C)c(NC(=O)C(=O)CC(=O)c2cccc3ccccc23)c1
TGI [1]: > 100 µM | TGI [2]: > 100 µM | TGI [3]: > 100 µM | TGI [4]: > 100 µM | TGI [5]: > 100 µM | TGI [6]: > 100 µM | TGI [7]: > 100 µM | TGI [8]: > 100 µM

CCOC(=O)C/C(N)=C(\C#N)C(=O)OCC
TGI [1]: > 100 µM | TGI [2]: > 100 µM | TGI [3]: > 100 µM | TGI [4]: > 100 µM | TGI [5]: > 100 µM | TGI [6]: > 100 µM | TGI [7]: > 100 µM | TGI [8]: > 100 µM

O=S1c2ccccc2N=C(c2ccc3ccccc3c2)CC1c1ccccc1F (stereo not given)
TGI [1]: > 100 µM | TGI [2]: > 100 µM | TGI [3]: > 100 µM | TGI [4]: > 100 µM | TGI [5]: > 100 µM | TGI [6]: > 100 µM | TGI [7]: > 100 µM | TGI [8]: > 100 µM

O=C(O)/C(=C/c1ccccc1[N+](=O)[O-])c1cccs1
TGI [1]: > 100 µM | TGI [2]: > 100 µM | TGI [3]: > 100 µM | TGI [4]: > 100 µM | TGI [5]: > 100 µM | TGI [6]: > 100 µM | TGI [7]: > 100 µM | TGI [8]: > 100 µM

CCOc1ccc(/C=N\N2C(=O)c3ccccc3C2=O)cc1
TGI [1]: > 100 µM | TGI [2]: > 100 µM | TGI [3]: > 100 µM | TGI [4]: > 100 µM | TGI [5]: > 100 µM | TGI [6]: > 100 µM | TGI [7]: > 100 µM | TGI [8]: > 100 µM
